Molecules are shown by their SMILES. “And” between values parts separate entries of the source, which are not always exact repeats. Equal values may be shown once. “Also recorded” adds a separate entry of the source.

In one data set the test system is RAJI cells. Description: Growth inhibition, RAJI cells. The data set is classed as cell-based, human. The note with it: 72 hours; for growth inhibition (in words): 3-1000 μM. On the procedure: (§1) The cell lines CEM (T lymphoblastoid cells derived from a human peripheral blood), MOLT-4 (derived from a human acute lymphoblasticleukemia), RAJI (derived from a human Burkitt lymphoma), U-937 (derived from a human histocytic lymphoma), and K-562 (derived from a human chronic myelogenous leukemia) were used to measure the cytotoxicity, as assessed by growth inhibition potential. The cell lines were purchased from the American Type Culture Collection (Vienna, Va.). The cells were grown and maintained as a suspension culture in a RPMI 1640 preparation containing L-glutamine (Biofluids, Rockville, Md.) and 10% (v/v) heat-inactivated fetal calf serum (Invitrogen, Chicago, Ill.); a penicillin-streptomycin solution (Sigma Chemical Co., St. Louis, Mo.) was added to achieve a final concentration of 100 units/mL, and 100 μg/mL respectively. Cells were maintained at 37° C. in a humidified 5% CO2 atmosphere and were passed every 72-96 h to maintain cell densities of approximately 30,000 to 40,000 cells/mL. Under these conditions, the doubling times for CEM cells, MOLT-4 cells, RAJI cells, U-937 cells, and K-562 cells were 21-22 hours.
(§2) FAU and FAUPA were dissolved in deionized water and sterilized by passing through a Millex-GV, 0.22 μm filter, Millipore, Bedford, Mass.
(§3) All cell lines were resuspended in fresh media at 3000 to 3500 cells/mL. To each cell suspension final volume 0.2 mL, was added to achieve 0 to 1000 μM concentration of either FAU or FAU-PA. Control experiments had appropriate amounts of sterile distilled water instead of the drug.

The test system of the next data set is U-937 cells. Kind of data set: Growth inhibition, U-937 cells. The data set is classed as cell-based, human. The note with it: 72 hours. Here is the method:
as §1, §2
(§4) All cell lines were resuspended in fresh media at 3000 to 3500 cells/mL. […]

The next data set deals with CEM cells. Description: Growth inhibition, CEM cells. The class given is cell-based, human. To be noted: 72 hours, cell counting. On the procedure:
as §1, §2, §4

The subject of a further data set is K-562 cells. Description: Growth inhibition, K-562 cells. The data set is classed as cell-based, human. The note with it: 72 hours; for growth inhibition (in words): 3-1000 μM. On the procedure:
as §1, §2, §3

In data set [1] the target is T1, mammalian cytosolic thymidine kinase (TK1) (Homo sapiens, UniProt P04183).
T1 sequence (P04183 1-234): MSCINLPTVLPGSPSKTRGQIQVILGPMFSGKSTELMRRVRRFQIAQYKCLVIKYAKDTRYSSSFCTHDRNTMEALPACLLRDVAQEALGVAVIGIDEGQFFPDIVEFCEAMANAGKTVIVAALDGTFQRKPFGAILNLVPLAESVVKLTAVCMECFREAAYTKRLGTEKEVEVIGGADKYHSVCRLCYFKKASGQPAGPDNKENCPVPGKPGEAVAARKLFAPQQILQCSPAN
The note with it: relative to thymidine or FMAU (Sun et al., 2003); cited from earlier work.

The test system of data set [2] is Renca cells. Description: DNA incorporation studies (PCA acid extraction) in Renca cells. The data set is classed as cell-based, mouse. The note with it: 2 hours. Here is the method: (§5) Renca, a mouse renal carcinoma cell line used for these studies, was a gift from Dr. G. Gali Hillman, Wayne State University. Cells were cultured in RPMI-1640 medium containing L-glutamine (Gibco) supplemented with 10% (v/v) fetal bovine serum (FBS), 100 U/mL penicillin, and 0.1 mg/mL streptomycin. Cells were cultured at 37° C. in a humidified incubator with a gas phase of 95% air and 5% CO2.
Two days after seeding 1×10^6 cells in 100×20 mm culture dishes, culture medium was replaced with 1 mL medium containing either 1 μCi/mL of [H-3] FAU or [H-3] FAU-PA. Cells were incubated in a humidified incubator for two hours at 37° C. in an atmosphere of 5% CO2 and 95% air. At the end of the incubation period, radioactive medium was removed and cells were washed three times with ice cold PBS. Then, cells were trypsinized, centrifuged and rewashed three times with ice cold PBS. Cells were lysed with 1 mL of 1M ice-cold perchloric acid solution. The cell lysates were vortexed and centrifuged at 14000 g for 15 minutes. The supernatants were removed, and the pellets were rinsed twice with 1 mL PCA. The acid insoluble fractions were resuspended in 200 μl of Soluene-350. All the acid soluble fractions or supernatants and the acid insoluble fractions were mixed with 5 mL of Ultima Gold scintillation cocktail and counted for 5 minutes on a liquid scintillation counter after an overnight chilling. […]

For the next data set, the system named is MOLT-4 cells. Description: Growth inhibition, MOLT-4 cells. The class given is cell-based, human. On the procedure: as §1, §2, §4
The next data set has as its system pig liver esterase. Kind of data set: Pig liver esterase hydrolysis studies. The data set is classed as in vitro ADME. The note with it: 1 mg/mL in 0.02 M Na2HPO4, 200 units esterase per mL, 37° C., followed by TLC. On the procedure:
Thymidine and phosphoramidate analogs were dissolved in 0.02 M Na2HPO4 at a concentration of 1 mg/mL and 200 units of pig liver esterase per mL solutions (Sigma, St. Louis, Mo.) were added. The mixtures were stirred and maintained at 37° C. through out the course of the experiment. The rate of hydrolysis was followed by thin layer chromatography (TLC) from reaction mixture samples collected at selected intervals. For TLC monitoring, CH2Cl2:MeOH (4:1) and i-PrOH:NH4OH:H2O (7:1:2) mobile phases were used. At the completion of hydrolysis, within 30 minutes, samples were run on a HPLC system.

In data set [3] the test system is Renca cells. Description: Tracer uptake studies in Renca cells. The class given is cell-based, mouse. To be noted: 2 hours, 1 μCi/mL [H-3] tracer. Here is the method:
as §5
Tracer uptake studies were performed using [H-3]FAU (318.2 GBq/mmol, >99% radiochemical purity), and [H-3]FAU-PA (9.25 GBq/mmol, >99% radiochemical purity). Radiochemicals were obtained from Moravek Biochemicals (Brea, Calif.).
Renca cells were seeded at 2×10^5 cells/mL in 6 well plates. After 48 hours, when cells were 50-60% confluent, culture medium was replaced with 1 mL medium containing either 1 μCi/mL of [H-3]FAU or [H-3]FAU-PA. Cells were incubated in a humidified incubator for two hours at 37° C. in an atmosphere of 5% CO2 and 95% air. At the end of the incubation period, radioactive medium was removed, and cells were rinsed three times with ice cold phosphate buffered saline (PBS). Then, cells were trypsinized, centrifuged at 2000 g for 5 minutes and rewashed three times with ice cold PBS. […] All the supernatants and pellet samples were mixed with 5 mL of Ultima Gold scintillation cocktail and counted for 5 minutes in a liquid scintillation counter. […]

Regarding `O=c1ccn([C@@H]2O[C@H](CO)[C@@H](O)[C@@H]2F)c(=O)[nH]1` [FAU, 1-(2′-deoxy-2′-fluoro-β-D-arabinofuranosyl)-uracil, reference compound], the “growth inhibition at 1 mM (in words)” value in the data set with RAJI cells (1 mM, compared with CEM) was “somewhat less inhibited”; with U-937 cells (1 mM, compared with CEM), “somewhat less inhibited”; in the data set on MOLT-4 cells (1 mM, 72 hours, compared with CEM), “somewhat less inhibited”. The “growth inhibition (in words)” value with RAJI cells and in the data set with K-562 cells (K-562 cells) was “little growth inhibition” in each case. The IC50 with CEM cells was less than 100 µM. Moreover, in the data set on K-562 cells (K-562 cells, 1 mM), the “growth inhibition at 1 mM” value came out at 40%. The “substrate quality for thymidine kinase (in words)” value in data set [1] was “poor substrate; also recorded: very poor substrate”. Also, the “share of total accumulated activity found in the acid insoluble fraction” value in the data set with Renca cells [2] was found to be 80%.

In the case of `COC(=O)C(C)NP(=O)(OCC1OC(n2ccc(=O)[nH]c2=O)C(F)C1O)Oc1ccccc1` [FAU-PA, 1-(2′-deoxy-2′-fluoro-β-D-arabinofuranosyl)-uracil-5′-(phenylmethoxyalaninyl phosphate], the “growth inhibition (in words)” value in the data set on RAJI cells and in the data set on K-562 cells (K-562 cells) was “little growth inhibition” each time. For the same molecule, the IC50 in the data set with RAJI cells (Homo sapiens, cell counting) is more than 100 µM; in the data set with U-937 cells (Homo sapiens, cell counting), less than 60 µM; in the data set on CEM cells (Homo sapiens, CCRF-CEM), less than 60 µM; in the data set with K-562 cells (Homo sapiens, K562, K-562 cells (printed K-567), cell counting), more than 100 µM; in the data set with MOLT-4 cells (Homo sapiens, MOLT-4, 72 hours, cell counting) it was less than 60 µM. Also, the “time for hydrolysis by pig liver esterase” value with pig liver esterase is not above 15 min. Further, the “share of total accumulated activity found in the acid insoluble fraction” value in the data set on Renca cells [2] was found to be 72%. Moreover, the “intracellular accumulation of activity, FAU-PA relative to FAU” value with Renca cells [3] is > 17 fold and 17 fold; with Renca cells [3] (listed as [H-3]FAU-PA), 17 fold.

As to `COC(=O)C(C)NP(=O)(OCC1OC(n2cc(C)c(=O)[nH]c2=O)C[C@H]1O)Oc1ccccc1` (stereo partly drawn) [thymidine-PA, Methyl thymidine-5′-phenylphosphoryl-P→N-alaninate, reference compound], the “time for hydrolysis by pig liver esterase” value in the data set with pig liver esterase is 15 to 30 min.
